Results taken from US20250295711A1, “FOOD SUPPLEMENT” (FONTERRA CO-OPERATIVE GROUP LIMITED, priority 2022, published 2025).
Marks after values point to notes of the source that are not given here.

Experiments:
CUMS rats [1] = assay: Open field test in CUMS (chronic unpredictable mild stress) rats; type: in vivo, rat; settings: for Total Distance Travelled in Open Field Test, After CUMS only (x ± S): after 40 days CUMS; for Total Distance Travelled in Open Field Test, After CUMS only (x ± S) / Vertical Movement (Number of Times Standing Up) in Open Field Test, After CUMS (x ± S): before intervention; for Vertical Movement (Number of Times Standing Up) in Open Field Test, After intervention (x ± S): after CUMS with intervention; for Total Distance Travelled in Open Field Test, After CUMS + intervention (x ± S): after further 40 days CUMS with intervention; for Total Distance Travelled in Open Field Test, Base line (x ± S) / Vertical Movement (Number of Times Standing Up) in Open Field Test, Base line (x ± S): before CUMS and before intervention
Description: (§1) A series of experiments were conducted using the chronic unpredictable mild stress (CUMS) rodent model. Rats were exposed daily to any two of the following mild physiological stresses selected at random: • 12 hours of water deprivation • 12 hours of food deprivation • 8 hours of damp sawdust • 24 hours of reversed light/dark cycle • 2 minutes of tail pinching • 1 hour of 60 Hz noise • 15 minutes of cage shaking • Swimming in 4° C. water for 5-10 minutes • 2 hours of restraining.
(§2) Six groups of rats were assessed: • 1. Control rats: rats raised normally without stress treatments and without nutritional or drug interventions. • 2. CUMS rats: rats subjected to the CUMS protocol but without nutritional or drug interventions. • 3. CUMS HN001: rats subjected to the CUMS protocol and given HN001. • 4. CUMS HN019: rats subjected to the CUMS protocol and given HN019. • 5. CUMS HN001+HN019: rats subjected to the CUMS protocol given both HN001 and HN019. • 6.
(§3) Baseline assessments were then conducted, including blood collection. For the next 40 days, rats in groups 2-6 were exposed to CUMS treatments to induce depression symptoms associated with stress and anxiety.
(§4) Tests were then carried out to assess rat behaviours, such as the open field test and the elevated maze test (see FIG. 2). These are standard ways to measure rat stress and anxiety traits.

CUMS rats [2] = assay: Elevated-plus maze test in CUMS rats; type: in vivo, rat; settings: for Time in Closed Arms in Elevated Plus Maze, After intervention (x ± S) / Total Distance Travelled in Elevated Maze Test, After intervention (x ± S): after CUMS with intervention; for Time in Closed Arms in Elevated Plus Maze, After CUMS (x ± S) / Total Distance Travelled in Elevated Maze Test, After CUMS (x ± S): before intervention; for Time in Closed Arms in Elevated Plus Maze, Base line (x ± S) / Total Distance Travelled in Elevated Maze Test, Base line (x ± S): before CUMS and before intervention
Description: as §1, §2, §3, §4

TNF-α = TNF-α content in serum, brain and colon of CUMS rats; type: in vivo, rat; settings: for TNF-α Content, Brain / TNF-α Content, Colon: end of experiment; for TNF-α Content, serum-after intervention: after CUMS with intervention; for TNF-α Content, serum-after CUMS: before intervention
Description: as §1, §2, §3
(§5) A series of blood markers were assessed.

IL-6 = IL-6 content in serum, brain and colon of CUMS rats; type: in vivo, rat; settings: for IL-6 Content, Brain / IL-6 Content, Colon: end of experiment; for IL-6 Content, serum-after intervention: after CUMS with intervention; for IL-6 Content, serum-after CUMS: before intervention
Description: as §1, §2, §3, §5

[3] = system: Corticotropin Releasing Hormone (CRH); assay: Serum corticotropin releasing hormone content in CUMS rats; type: in vivo, rat; settings: for Serum Corticotropin Releasing Hormone (CRH) Content, After intervention: after CUMS with intervention; for Serum Corticotropin Releasing Hormone (CRH) Content, After CUMS: before intervention
Description: as §1, §2, §3

[4] = system: Adrenocorticotropic Hormone (ACTH); assay: Serum adrenocorticotropic hormone content in CUMS rats; type: in vivo, rat; settings: for Serum Adrenocorticotropic Hormone (ACTH) Content, After intervention: after CUMS with intervention; for Serum Adrenocorticotropic Hormone (ACTH) Content, After CUMS: before intervention
Description: as §1, §2, §3

[5] = Body weight gain of CUMS rats; type: in vivo, rat; settings: FIG. 3
Description: as §1, §2, §3
The reduced weight gain in rats exposed to CUMS was improved by administration of HN001, HN019, or both (FIG. 3). Also, there were no differences in weight gain between CUMS groups.

brain and colon tissue = assay: HE staining of brain and colon tissues of CUMS rats; type: in vivo, rat; settings: brain, FIG. 5
Excerpt: Brain tissues included two regions from the hippocampus (Dentate Gyrus (DG) and CA1) and a region from the cortex (P2).
Brain and colon tissue were stained using the HE method. Brain tissue included two regions from the hippocampus (Dentate Gyrus (DG) and CA1) and a region from the cortex (P2). The results are shown in FIG. 5 and reveal that for the control group, neurons in hippocampal regions (dentate gyrus (DG) and Ca1) and the cortex (P2) were normal, orderly, tightly packed cells. The cells had expected morphology, homogeneous cytoplasmic staining, and no increased interstitial or abnormal changes.
For the colon tissue, control intestinal villi were arranged neatly, with normal cell morphology and no obvious damage was seen.

[6] = system: 5-HT, DA, NE, Glu, GABA, HIAA, DOPAC, HVA; assay: Neurotransmitters and their metabolites in serum and brain of CUMS rats; type: in vivo, rat; settings: FIG. 6
Excerpt: The level of serum and brain 5-HT, DA, NE, Glu and GABA were detected at the end of the experiment (A, B, D, E, G, H, J, K, L). (C), (F) and (I) show the metabolites of monoamine neurotransmitters in brain. The results are presented as the mean±SEM (n=10). #P<0.05 compared with CUMS group.
HIAA, DOPAC and HVA, as the metabolites of 5-HT, DA and NE, were increased in rat brains after CUMS stimulation.

intestinal microbiota = assay: 16S rRNA sequencing of faecal samples (gut microbiota) of CUMS rats; type: in vivo, rat; settings: for CUMS-induced alterations of relative abundance at phylum level: Firmicutes, Bacteroidetes, Verrucomicrobias, Proteobacterias, Actinobacterias; for CUMS-induced changes at genus level: Lactobacillus, Eubacterium coprostanoligenes group, Lachnospiraceae-NK4A136-group; for CUMS-induced changes of relative abundance at family level: Ruminococcaceae, Lactobacillaceae, Lachnospiraceae; for Sobs, ACE, Chao1 and Shannon index (alpha-diversity): compared with CUMS group, FIG. 9; for Beta diversity, PCoA plot: in comparison with CUMS rats, FIG. 10A; for Firmicutes to Bacteroidetes ratio (F/B ratio): increased after CUMS stimulation
Description: To evaluate whether probiotics, as well as CUMS, alter intestinal microbiota, 16S rRNA sequencing of faecal samples was performed. Alpha-diversity, as measured by richness (Sobs index, Chao1 index and ACE index; see FIGS. […]), and diversity (Shannon index; see FIG. 9 D), was decreased after CUMS. Beta diversity analysis was evaluated through PCoA to assess differences in microbial composition among six groups (FIG. 10A).

Cortisol = Cortisol (HPA axis) after stress; type: in vivo; settings: stress induced; no data shown

Substance | Total Distance Travelled in Open Field Test, After CUMS only (x ± S) (CUMS rats [1]) | Vertical Movement (Number of Times Standing Up) in Open Field Test, After intervention (x ± S) (CUMS rats [1]) | Vertical Movement (Number of Times Standing Up) in Open Field Test, After CUMS (x ± S) (CUMS rats [1]) | Total Distance Travelled in Open Field Test, After CUMS + intervention (x ± S) (CUMS rats [1]) | Total Distance Travelled in Open Field Test, Base line (x ± S) (CUMS rats [1]) [Metres] | Vertical Movement (Number of Times Standing Up) in Open Field Test, Base line (x ± S) (CUMS rats [1]) | Time in Closed Arms in Elevated Plus Maze, After intervention (x ± S) (CUMS rats [2]) | Total Distance Travelled in Elevated Maze Test, After intervention (x ± S) (CUMS rats [2]) | Time in Closed Arms in Elevated Plus Maze, After CUMS (x ± S) (CUMS rats [2]) | Total Distance Travelled in Elevated Maze Test, After CUMS (x ± S) (CUMS rats [2]) | Time in Closed Arms in Elevated Plus Maze, Base line (x ± S) (CUMS rats [2]) [s] | Total Distance Travelled in Elevated Maze Test, Base line (x ± S) (CUMS rats [2]) [Metres] | TNF-α Content, Brain (TNF-α) | TNF-α Content, Colon (TNF-α) | TNF-α Content, serum-after intervention (TNF-α) | TNF-α Content, serum-after CUMS (TNF-α) | IL-6 Content, Brain (IL-6) | IL-6 Content, Colon (IL-6) | IL-6 Content, serum-after intervention (IL-6) | IL-6 Content, serum-after CUMS (IL-6) | other results
Bifidobacterium animalis subsp. lactis strain HN019 | 5.42 ± 3.11^a Metres | 11.63 ± 4.90^b | 4.50 ± 3.42^a | 12.21 ± 2.54^b Metres | 24.65 ± 3.59 | 19.62 ± 6.80 | 215.28 ± 17.98^b Seconds | 7.91 ± 0.65^b Metres | 288.83 ± 11.57^a Seconds | 3.08 ± 2.21^a Metres | 215.83 ± 23.30 | 9.35 ± 1.38 | 60.67 ± 6.65^b pg/ml | 71.34 ± 10.46^b pg/ml | 12.08 ± 3.68^b pg/ml | 23.97 ± 3.69^a pg/ml | 19.25 ± 4.78^b pg/ml | 31.88 ± 7.83^b pg/ml | 10.19 ± 4.47^b pg/ml | 13.08 ± 4.30^a pg/ml | Serum Corticotropin Releasing Hormone (CRH) Content, After intervention [3]: 2.47 ± 1.34^b pg/ml; Serum Corticotropin Releasing Hormone (CRH) Content, After CUMS [3]: 5.19 ± 3.48^a pg/ml; Serum Adrenocorticotropic Hormone (ACTH) Content, After intervention [4]: 2.13 ± 1.88^b pg/ml; Serum Adrenocorticotropic Hormone (ACTH) Content, After CUMS [4]: 5.53 ± 3.43^a pg/ml; Reduced weight gain in rats exposed to CUMS [5]: improved; Morphology of hippocampus (DG, CA1) and cortex (P2) (brain and colon tissue): CUMS-associated damage was largely reduced; Effects of CUMS on neurotransmitters (5-HT, DA, NE, Glu, GABA) and metabolites [6]: able to reverse the effects of CUMS; CUMS-induced alterations of relative abundance at phylum level (intestinal microbiota): alleviated the phylum alterations; CUMS-induced changes at genus level (intestinal microbiota): improved; CUMS-induced changes of relative abundance at family level (intestinal microbiota): reversed the changes of family; Sobs, ACE, Chao1 and Shannon index (alpha-diversity) (intestinal microbiota): decreased; Beta diversity, PCoA plot (intestinal microbiota): marked differences; Firmicutes to Bacteroidetes ratio (F/B ratio) (intestinal microbiota): decreased the F/B ratio; Cortisol level (Cortisol): reduced closer to non-stressed control levels
Lactocaseibacillus rhamnosus strain HN001 | 5.64 ± 2.10^a Metres | 13.57 ± 4.39^b | 3.43 ± 2.88^a | 14.62 ± 7.97^b Metres | 23.43 ± 8.42 | 19.67 ± 6.26 | 220.28 ± 11.45^b Seconds | 8.61 ± 1.63^b Metres | 280.00 ± 9.58^a Seconds | 3.17 ± 1.88^a Metres | 230.69 ± 23.78 | 8.28 ± 0.81 | 61.99 ± 5.17^b pg/ml | 79.89 ± 11.48^b pg/ml | 12.88 ± 4.62^b pg/ml | 21.12 ± 6.40^a pg/ml | 20.44 ± 3.06v pg/ml | 31.56 ± 9.00^b pg/ml | 9.96 ± 4.10^b pg/ml | 14.01 ± 5.98^a pg/ml | Serum Corticotropin Releasing Hormone (CRH) Content, After intervention [3]: 2.38 ± 1.59^b pg/ml; Serum Corticotropin Releasing Hormone (CRH) Content, After CUMS [3]: 5.53 ± 2.77^a pg/ml; Serum Adrenocorticotropic Hormone (ACTH) Content, After intervention [4]: 3.12 ± 2.52^b pg/ml; Serum Adrenocorticotropic Hormone (ACTH) Content, After CUMS [4]: 5.85 ± 3.35^a pg/ml; Reduced weight gain in rats exposed to CUMS [5]: improved; Morphology of hippocampus (DG, CA1) and cortex (P2) (brain and colon tissue): CUMS-associated damage was largely reduced; Effects of CUMS on neurotransmitters (5-HT, DA, NE, Glu, GABA) and metabolites [6]: able to reverse the effects of CUMS; CUMS-induced alterations of relative abundance at phylum level (intestinal microbiota): alleviated the phylum alterations; CUMS-induced changes at genus level (intestinal microbiota): improved; CUMS-induced changes of relative abundance at family level (intestinal microbiota): reversed the changes of family; Sobs, ACE, Chao1 and Shannon index (alpha-diversity) (intestinal microbiota): decreased; Beta diversity, PCoA plot (intestinal microbiota): marked differences; Firmicutes to Bacteroidetes ratio (F/B ratio) (intestinal microbiota): decreased the F/B ratio; Cortisol level (Cortisol): reduced closer to non-stressed control levels
